For one experiment, the system named is Type I procollagen mRNA. The experiment in a line: In situ hybridization for Type I procollagen mRNA in biopsies of retinoid-pretreated, UV-exposed human skin. The class given is in vivo. The conditions noted are these: 0.1% topical. How it is done: (§1) We tested whether retinoids, in particular all-trans retinoic acid, would have any effect on the loss of procollagen mRNA and/or the procollagen proteins in human skin after exposure to UV radiation. (Unless otherwise noted, the retinoic acid used in the experiments described herein was all-trans.) Separate areas of skin from each of our volunteers were treated with either 0.1% retinoic acid in vehicle or with vehicle alone; the vehicle was composed of a mixture of ethanol and polyethylene glycol in a 70:30 volumetric ratio. Thereafter, these areas of skin were exposed to 2 MEDs (typically) of UV radiation and then biopsied at specific times after the exposure; the biopsies were analyzed as described previously. The site of the volunteers' skin to be exposed to UV radiation was treated prior to UV exposure with either the all-trans retinoic acid or the control vehicle. […]
(§2) In Situ Hybridization: Digoxigenin-containing sense and antisense riboprobes to detect human type I and Type III procollagen RNA (mRNA) were synthesized with the use of T3 and T7 ribonucleic acid polymerases. […] Hybridization signals were detected immunohistochemically with the use of alkaline phosphatase-conjugated antidigoxigenin antibody.

Experiment [1] relates to Type III procollagen protein and pN collagen precursor protein. Kind of experiment: Western analysis of Type III procollagen protein and pN precursor protein in retinoic acid-pretreated, UV-exposed human skin. The format is in vivo. The following applies: 0.1% topical, FIG. 15. How it is done: as §1, with “previously.” for “previously. The site of the volunteers' skin to be exposed to UV radiation was treated prior to UV exposure with either the all-trans retinoic acid or the control vehicle.”
(§3) Western analysis of proteins. Type I procollagen and pN collagen precursor protein, as well as Type III procollagen were detected in skin extracts by Western analysis as described by G. J. Fisher et al. (in “Immunological identification and functional quantitation of retinoic acid and retinoid X receptor proteins in human skin,” J. Biol. Chem., 269:20629-20635 (1994)).
(§4) Immunoreactive proteins were visualized by enhanced chemiluminescence detection and quantified by laser densitometry, or by enhanced chemifluorescence detection and quantified by a Storm imager (Molecular Dynamics, Sunnyvale, Calif.).

A further experiment has as its system soluble collagen. Kind of experiment: Soluble collagen (hydroxyproline content) in retinoid-pretreated, UV-exposed human skin in vivo. The conditions noted are these: 0.1% topical. How it is done:
We tested whether retinoids, in particular all-trans retinoic acid, would have any effect on the loss of procollagen mRNA and/or the procollagen proteins in human skin after exposure to UV radiation. (Unless otherwise noted, the retinoic acid used in the experiments described herein was all-trans.) Separate areas of skin from each of our volunteers were treated with either 0.1% retinoic acid in vehicle or with vehicle alone; the vehicle was composed of a mixture of ethanol and polyethylene glycol in a 70:30 volumetric ratio. Thereafter, these areas of skin were exposed to 2 MEDs (typically) of UV radiation and then biopsied at specific times after the exposure; the biopsies were analyzed as described previously. The site of the volunteers' skin to be exposed to UV radiation was treated prior to UV exposure with either the all-trans retinoic acid or the control vehicle. […] Nevertheless, it should be understood that a period of pretreatment with retinoid more than eight and less than twenty-four hours before UV exposure may likely be sufficient to prevent the reduction in collagen biosynthesis we have observed. Furthermore, it should be understood that in all of the following examples treatment with a retinoid (e.g., “retinoic acid-treated”) or the vehicle (e.g.,. “vehicle-treated”) should each be understood as pretreatment 24 hours before UV exposure.
We also assayed the biopsies from our volunteers for soluble collagen (measured as hydroxyproline content) in vehicle- and retinoid-treated skin, both before and after UV exposure. […] After UV exposure, the vehicle-treated skin (VEH+UV) had only about 40% of the soluble collagen as was present prior to exposure. The retinoid-treated area (RA+UV) still had reduced amounts of soluble collagen when compared with skin prior to UV exposure, yet the levels were almost twice what was found in the vehicle-treated/UV-exposed skin.
As mentioned above, the area of the volunteers' skin to be treated with a retinoid prior to UV exposure was pretreated 24 hours prior to exposure. We pretreated certain volunteer's sun-protected skin with 0.1% all trans retinoic acid 8 hours prior to exposure to 2 MEDs of UV radiation. […] Thus, as mentioned above, to prevent UV-induced loss of collagen synthesis using a retinoid, pretreatment 24 hours before exposure yields the desired prophylactic effect, whereas pretreatment 8 hours before exposure yields no significant prophylaxis.
Hydroxyproline Analysis: hydroxyproline analysis using the Amino Acid Analyzer Model 420H (Applied Biosystems, Foster City, Calif.) automates precolumn phenylthiocarbamyl-amino acid (PTC-AA) analysis. The Model 420H analyzer first hydrolyzes proteins to liberate free amino acids. Once hydrolyzed, the free amino acids are derivatized with phenylisothiocynanate (PITC) to form PTC-AA derivatives. A reverse-phase column in a temperature-controlled oven separates the PTC-AAs. Concentration of hydroxyproline in the skin extract was determined based upon a hydroxyproline standard.

Experiment [2] has as its system Type I procollagen protein. The experiment in a line: Immunohistological staining for Type I procollagen protein in biopsies of retinoid-pretreated, UV-exposed human skin. The class given is in vivo. The following applies: 0.1% topical. As for the experimental part:
as §1, with “previously.” for “previously. The site of the volunteers' skin to be exposed to UV radiation was treated prior to UV exposure with either the all-trans retinoic acid or the control vehicle.”
(§5) Immunohistology: Immunihistology of Type I and Type III pN collagens was performed as has been described by Griffiths, C. […] Type I pN collagen was detected with mouse monoclonal IgG1 antibody (SP1.D8; available from Univ. of Iowa Dept. of Biological Sciences Developmental Studies Hybridoma Bank, Iowa City, Iowa) raised against the aminopropeptide region of human Type I procollagen (Foellmer, H. G., et al., Euro. J. Biochm., 134:183-189 (1983)). Type III pN collagen was detected with affinity-purified rabbit polyclonal antibody to aminopropeptide of Type III procollagen (identical to that used for Western analysis). […]

Experiment [3] relates to Type I procollagen and pN collagen precursor protein. Kind of experiment: Western analysis of Type I procollagen protein and pN precursor protein in retinoic acid-pretreated, UV-exposed human skin. The format is in vivo. The following applies: 0.1% topical, FIG. 12. How it is done:
We tested whether retinoids, in particular all-trans retinoic acid, would have any effect on the loss of procollagen mRNA and/or the procollagen proteins in human skin after exposure to UV radiation. (Unless otherwise noted, the retinoic acid used in the experiments described herein was all-trans.) Separate areas of skin from each of our volunteers were treated with either 0.1% retinoic acid in vehicle or with vehicle alone; the vehicle was composed of a mixture of ethanol and polyethylene glycol in a 70:30 volumetric ratio. Thereafter, these areas of skin were exposed to 2 MEDs (typically) of UV radiation and then biopsied at specific times after the exposure; the biopsies were analyzed as described previously. The site of the volunteers' skin to be exposed to UV radiation was treated prior to UV exposure with either the all-trans retinoic acid or the control vehicle. […] Nevertheless, it should be understood that a period of pretreatment with retinoid more than eight and less than twenty-four hours before UV exposure may likely be sufficient to prevent the reduction in collagen biosynthesis we have observed. Furthermore, it should be understood that in all of the following examples treatment with a retinoid (e.g., “retinoic acid-treated”) or the vehicle (e.g.,. “vehicle-treated”) should each be understood as pretreatment 24 hours before UV exposure. […]
as §3, §4

Experiment [4] deals with Type III procollagen mRNA. Kind of experiment: In situ hybridization for Type III procollagen mRNA in biopsies of retinoid-pretreated, UV-exposed human skin. The format is in vivo. The following applies: 0.1% topical, pretreatment 24 h before UV; FIG. 13D. As for the experimental part:
as §1, §2

Experiment [5] has as its system Type III procollagen protein. Kind of experiment: Immunohistological staining for Type III procollagen protein in biopsies of retinoid-pretreated, UV-exposed human skin. The class given is in vivo. The conditions noted are these: 0.1% topical, pretreatment 24 h before 2 MEDs UV, biopsy 24 h after exposure; FIG. 14D. As for the experimental part: as §1, with “previously.” for “previously. The site of the volunteers' skin to be exposed to UV radiation was treated prior to UV exposure with either the all-trans retinoic acid or the control vehicle.”
as §5

[6] abbreviates: pretreatment 24 h before 2 MEDs UV, biopsy 24 h after exposure.

With `CC1=C(/C=C/C(C)=C/C=C/C(C)=C/C(=O)O)C(C)(C)CCC1` [all-trans retinoic acid], the “Type I procollagen mRNA expression in fibroblasts vs vehicle-treated skin, prior to UV exposure” value with Type I procollagen mRNA (24 h after treatment, no UV, FIG. 10B vs 10A) is “essentially the same in both”. For the same compound, the “Type I procollagen mRNA expression after UV exposure” value in the experiment with Type I procollagen mRNA (pretreatment 24 h before UV, FIG. 10D) was “does not appear to evidence any loss in the mRNA signalling”. Also, in experiment [1] (no UV), the “Amounts of Type III procollagen protein and pN precursor protein vs vehicle-treated skin, prior to UV exposure” value is listed as “essentially the same amounts”. In addition, in experiment [1] (pretreatment 24 h before 2 MEDs UV, RA+UV), the “Amounts of Type III procollagen protein and pN precursor protein after UV vs control and retinoic acid-treated areas prior to exposure” value is given as “essentially the same amounts”. Moreover, in the experiment on soluble collagen (24 h pretreatment, no UV, FIG. 16), the “Soluble collagen (hydroxyproline content) vs vehicle-treated skin, prior to UV exposure” value is reported as “about the same”. Further, the “Soluble collagen (hydroxyproline content) vs vehicle-treated skin, without UV exposure” value in the experiment on soluble collagen (after 8 hours, no UV, FIG. 17) is reported as “the same”. For the same compound, the “Soluble collagen (hydroxyproline content) 24 hours after UV exposure vs vehicle-treated skin” value in the experiment with soluble collagen (pretreatment 8 hours before 2 MEDs UV, FIG. 17) is reported as “essentially the same”. The “Soluble collagen (hydroxyproline content) after UV, relative to vehicle-treated/UV-exposed skin” value in the experiment on soluble collagen (pretreatment 24 h before UV, RA+UV, FIG. 16) is given as “almost twice”. Further, in the experiment on soluble collagen (pretreatment 24 hours before UV exposure), the “Prevention of UV-induced reduction in collagen biosynthesis” value was “a reduction in collagen biosynthesis was prevented”. In the experiment on soluble collagen (pretreatment eight hours before UV exposure), the “Prevention of UV-induced reduction in collagen synthesis” value is given as “did not appear to significantly prevent reduction in collagen synthesis”. For the same compound, the “Type I procollagen protein staining vs vehicle-treated skin, prior to UV exposure” value in experiment [2] (no UV, FIG. 11B vs 11A) is listed as “no appreciable difference”. Moreover, the “Type I procollagen protein staining after UV vs before UV exposure” value in experiment [2] (pretreatment 24 h before 2 MED UV, biopsy 24 h after exposure, FIG. 11D) is listed as “comparable, though slightly reduced”. The “Amounts of Type I procollagen and pN precursor protein vs vehicle-treated skin, unexposed” value in experiment [3] (no UV, vehicle normalized to 1.0) was “essentially the same amounts”. In addition, in experiment [3] (setting [6]), the “Type I procollagen protein after UV, relative to control” value is on record as “greater than 80 % of the control” and the “pN collagen precursor protein (Type I) after UV, relative to control” value is reported as “greater than 80 % of the control”. Besides, the “Reduction in expression of Type III procollagen mRNA after UV exposure” value in experiment [4] was “little, if any, reduction”. Also, in experiment [5], the “Type III procollagen protein staining after UV vs prior to UV exposure” value is “almost the same pattern and intensity of staining”.

The record behind these values is patent US6683069B1, “Methods and compositions for reducing UV-induced inhibition of collagen synthesis in human skin” (Regents of the University of Michigan, priority 1998, dated 2004).
